Entries after “also recorded” stand apart in the source; their conditions may differ.
Legend:
[1] = tested on: longitudinal ileal smooth muscle; experiment: Contraction of longitudinal ileal smooth muscle; assay type: cell-based, ferrets; conditions: inhibitor 10⁻⁵ M
From the text: Using methods similar to those with ferret airway smooth muscle, described in Example 7, longitudinal ileal smooth muscle was examined. […] Leu-thiorphan (10⁻⁵ M) shifted the dose response curve to lower concentrations by 1 log unit.

enkephalinase = target: T1, enkephalinase (Mustela putorius furo, UniProt M3XUG8); experiment: Enkephalinase activity of tissue membrane fractions: cleavage of (3H-Tyr1,DAla2,Leu5)enkephalin, inhibition by inhibitors and substrates; assay type: biochemical, ferret
T1 sequence (M3XUG8 2-749): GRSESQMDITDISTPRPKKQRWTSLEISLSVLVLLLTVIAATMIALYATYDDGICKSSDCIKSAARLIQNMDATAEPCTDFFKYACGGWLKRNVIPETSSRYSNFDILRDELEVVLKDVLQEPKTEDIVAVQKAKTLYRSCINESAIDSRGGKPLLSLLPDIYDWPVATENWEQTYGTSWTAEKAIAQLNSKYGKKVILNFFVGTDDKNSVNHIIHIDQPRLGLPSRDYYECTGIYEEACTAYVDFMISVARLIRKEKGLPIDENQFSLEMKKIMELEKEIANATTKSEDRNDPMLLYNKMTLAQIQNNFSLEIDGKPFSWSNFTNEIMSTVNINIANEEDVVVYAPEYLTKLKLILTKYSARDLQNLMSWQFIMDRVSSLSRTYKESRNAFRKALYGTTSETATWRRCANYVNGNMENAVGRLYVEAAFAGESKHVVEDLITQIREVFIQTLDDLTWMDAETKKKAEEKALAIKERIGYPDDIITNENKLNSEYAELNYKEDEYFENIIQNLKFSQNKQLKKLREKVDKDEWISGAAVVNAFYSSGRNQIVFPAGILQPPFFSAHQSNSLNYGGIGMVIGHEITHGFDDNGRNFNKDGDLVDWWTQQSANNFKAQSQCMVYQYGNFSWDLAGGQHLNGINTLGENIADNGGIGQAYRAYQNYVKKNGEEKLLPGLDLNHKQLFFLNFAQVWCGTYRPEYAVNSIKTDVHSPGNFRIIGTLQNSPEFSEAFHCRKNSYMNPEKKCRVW
Protocol: In this series of experiments, the tissue locations of enkephalinase were determined. Enkephalinase was purified from the ferret kidney to near homogeneity using published methods (Malfroy and Schwartz, Supra). Enkephalinase activity in membrane fractions derived from the vagus nerve, tracheal epithelium, submucosa, muscle, lungs, and kidneys of ferrets was determined. Ferrets were anesthetized, and the vagi, trachea, lungs, and kidneys removed. The tracheal epithelium, submucosa, and muscle were separated from each other by incubating the trachea in Ca⁺⁺-free medium for 15 minutes, after which time, the epithelium was easily removed. The muscle was then separated from the gland-containing submucosa. Each tissue was minced and then homogenized in 50mM HEPES buffer (pH 7.4) using a Polytron homogenizer.
Enkephalinase activity was measured by determining the rates of cleavage of (³H-Tyr¹, DAla², Leu⁵)enkephalin (Research Products International) by membrane fractions or purified enkephalinase. Fifty µl of membrane fraction was incubated for 40 minutes at room temperature with 50 µl of buffer containing (³H-Tyr¹, DAla²,Leu⁵)enkephalin (20nM), after which time the reaction was quenched by adding 50 µl of 2N HCl.
Seventy-five µl of this solution was applied to columns containing polystyrene beads (Poropak-Q); the characteristic metabolite, ³H-Tyr-DAla-Gly, eluted with water, and the radioactivity determined. The protein concentrations were determined by the Bradford procedure (Bradford, M.M. Analytical Biochem. 72:248-254 [1976]), and results of enkephalinase activities were expressed as fmoles substrate cleaved per min per mg protein.

[2] = tested on: ferret tracheal smooth muscle; experiment: Isometric tension of isolated tracheal smooth muscle rings (contraction by peptides, effect of inhibitors); assay type: cell-based
Protocol: Twenty-seven ferrets were anesthetized with pentobarbital sodium (45-60 mg/kg, i.p.), and the trachea were removed. Transverse rings (8 mm long) were cut from the trachea and mounted in glass chambers filled with 14 ml of Krebs-Henseleit solution of the following composition (in mMoles/L): NaCl 118, KCl 5.9, CaCl₂ 2.5, MgSO₄ 1.2, NaH₂PO4 1.2, NaHCO₃ 25.5, glucose 5.6, 0.1% bovine serum albumin, and penicillin-streptomycin (100 Units/ml). The soluiton was maintained at 37°C and was aerated continuously in a mixture of 95% O₂-5% CO₂, which produced a pH of 7.4. Six tracheal rings were studied concurrently.
(§1) The tracheal rings were connected to strain gauges (Grass FT03) for continuous recording of isometric tension, and the rings were placed between two rectangular platinum electrodes (6 x 40 mm) for electrical field stimulation. The rings were initially stretched to a tension of 20 g for 30 seconds and were then allowed to equilibrate for 1 hour while resting tension was adjusted to 4 g (Skoogh, B-E. et al., J. Appl. Physiol. 53: 253-257 [1982]). During equilibration, the medium was changed every 15 minutes. […] Id.
The responsiveness to substance P (using concentrations ranging from 10⁻⁸ M to 10⁻⁵ M) and to leu-thiorphan and cumulative dose-response curves to substance P (Peninsula Labs) were obtained. Each succeeding concentration of substance P was added after contraction reached a plateau. After completion of the first dose-response curve to substance P, leu-thiorphan (10⁻⁵ M, Squibb Pharmaceutical) was added to the organ bath. Following a 15 minute incubation, a second dose-response curve to substance P was obtained.
The N-terminal fragment, substance P₁₋₉ was studied because enkephalinase cleaves substance P between the 9 and 10 positions (Matsas, R. et al., Proc. Natl. Acad. Sci. [USA] 80: 3111-3115 [1983]), generating that fragment. (10⁻⁵ M Peninsula Labs). Experiments were also carried out with (DPro², DTrp^7,9)-substance P (10⁻⁵ M) (Peninsula Labs), a substance P antagonist (Hakanson, R. et al., Br. J. Pharmac. 77: 697-700 [1982]) by adding the antagonist after the response to substance P (10⁻⁶ M) and leu-thiorphan (10⁻⁵ M) reached a plateau.
Data were expressed as mean ± SE. For the dose-response curves to substance P, the means between two groups at each concentration were compared by a paired t test. For the studies of electrical field stimulation, responses were compared by one way analysis of variance and Newman-Keuls multiple range test. Significance was accepted at P < 0.05. […]

[3] = tested on: ferret tracheal smooth muscle; experiment: Electrical field stimulation-induced contraction of isolated tracheal smooth muscle; assay type: cell-based; conditions: 5 Hz; leu-thiorphan 10⁻⁵ M, 15 min
Protocol: as §1
Increasing concentrations of leu-thiorphan (10⁻¹¹ to 10⁻⁴ M) were added and the stimuli repeated to determine whether leu-thiorphan modulated electrical field stimulation-induced contractions. […] After determining control responses to electrical field stimulation (5 Hz), leu-thiorphan (10⁻⁵ M; 15 min) was added, the stimulus repeated, (DPro²,DTrp^7,9)substance P, the substance P antagonist (10⁻⁵ M; 15 min; Peninisula Labs) was added, and the stimulus was repeated.
Data were expressed as mean ± SE. For the dose-response curves to tachykinins the means between two groups at each concentration were analyzed by an unpaired t test. For the study of electrical field stimulation, responses were compared by one way analysis of variance and Newman-Keuls multiple range test. Significance was accepted at p<0.05.

[4] = target: T2, purified rat kidney enkephalinase (Rattus norvegicus, UniProt P07861); assay type: biochemical; conditions: peptide 10⁻⁴M, 50 ng enzyme, 30 minutes at 37°C
T2 construct: purified rat kidney enkephalinase (50 ng in 150 ul 50 mM, pH7.4 HEPES buffer containing 0.02% Triton X-100); from tissue; host or cells: rat kidney
T2 sequence (P07861 1-750): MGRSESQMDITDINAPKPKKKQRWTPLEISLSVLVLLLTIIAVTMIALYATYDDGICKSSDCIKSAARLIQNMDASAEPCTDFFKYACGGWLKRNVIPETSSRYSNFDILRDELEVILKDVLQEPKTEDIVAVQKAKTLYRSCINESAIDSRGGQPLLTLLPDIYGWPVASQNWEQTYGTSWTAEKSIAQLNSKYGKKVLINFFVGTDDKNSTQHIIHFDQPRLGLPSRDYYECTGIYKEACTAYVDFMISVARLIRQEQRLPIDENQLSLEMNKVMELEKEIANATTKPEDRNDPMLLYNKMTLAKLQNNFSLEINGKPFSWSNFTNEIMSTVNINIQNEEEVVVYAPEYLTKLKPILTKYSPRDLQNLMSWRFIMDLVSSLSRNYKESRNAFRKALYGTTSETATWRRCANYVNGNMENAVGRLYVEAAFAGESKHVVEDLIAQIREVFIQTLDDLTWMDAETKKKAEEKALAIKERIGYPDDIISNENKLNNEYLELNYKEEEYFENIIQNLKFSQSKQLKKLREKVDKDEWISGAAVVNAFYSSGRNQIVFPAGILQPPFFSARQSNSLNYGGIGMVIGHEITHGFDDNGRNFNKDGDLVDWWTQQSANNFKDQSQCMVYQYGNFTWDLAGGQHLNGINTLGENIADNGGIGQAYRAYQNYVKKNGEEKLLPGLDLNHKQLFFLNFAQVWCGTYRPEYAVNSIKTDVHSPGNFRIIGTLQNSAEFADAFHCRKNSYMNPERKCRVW

Compound | shift of the dose response curve to substance P to lower concentrations [1] [log unit] | Ki (enkephalinase; Epthelium membrane fraction) [nM] | Ki (enkephalinase; Kidney) [nM] | Ki (enkephalinase; Lung membrane fraction) [nM] | Ki (enkephalinase; Muscle membrane fraction) [nM] | Ki (enkephalinase; Submucosa membrane fraction) [nM] | Ki (enkephalinase; Vagus/N. membrane fraction) [nM] | effect alone on resting tension ([2]; 10⁻⁵ M) | effect on resting tension ([2]; concentrations up to 10⁻⁴ M) | shift of the dose-response curve to neurokinin A to lower concentrations ([2]; inhibitor 10⁻⁵ M) | shift of the dose-response curve to neurokinin B to lower concentrations ([2]; inhibitor 10⁻⁵ M) | shift of the dose-response curve to substance P to lower concentrations ([2]; inhibitor 10⁻⁵ M) | response to electrical field stimulation, percent of control responses without added drugs [3] [%] | fraction of the peptide degraded / hydrolyzed [4] [%]
CC(C)C[C@H](NC(=O)C(CS)Cc1ccccc1)C(=O)O (some centres unmarked) [leu-thiorphan, Leucine-thiorphan] | 1 | 8.7 | 3.3 | 2.8 | 2.1 | 2.8 | 2.1 | no significant effect on resting tension | did not alter resting tension in any experiment | two-log units | three-log units | approximately one log unit; also recorded: approximately one-log unit | 118 ± 1.7 | –
bombesin | – | – | – | – | – | – | – | – | – | – | – | – | – | 80

Source: patent publication EP0272929B1, “Enkephalinase for therapeutic use” (GENENTECH, INC., priority 1986, dated 1988)
